Test results reported in PubChem BioAssay (NCI).
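Grown in 96-well plates, cells were treated for 48 hours with each compound at five concentrations. Insufficient inhibition: endpoint recorded as highest concentration tested. GI50: concentration for 50% inhibition of growth. TGI marks complete inhibition of growth.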

Columns and labels:
Experiment in all cases: inhibition of tumour cell growth, NCI panel, 48 h
DU-145 prostate = system: DU-145 prostate
SF-295 CNS = system: SF-295 CNS
HCT-116 colon = system: HCT-116 colon
UACC-257 melanoma = system: UACC-257 melanoma
HT29 colon = system: HT29 colon
HS 578T breast = system: HS 578T breast
SK-MEL-2 melanoma = system: SK-MEL-2 melanoma
786-0 renal = system: 786-0 renal
MDA-MB-468 breast = system: MDA-MB-468 breast
A498 renal = system: A498 renal
UO-31 renal = system: UO-31 renal
OVCAR-5 ovarian = system: OVCAR-5 ovarian
HL-60(TB) leukemia = system: HL-60(TB) leukemia
SR leukemia = system: SR leukemia
MALME-3M melanoma = system: MALME-3M melanoma
NCI-H460 lung = system: NCI-H460 lung
NCI-H226 lung = system: NCI-H226 lung
HCC-2998 colon = system: HCC-2998 colon
EKVX NSCLC = system: EKVX NSCLC
MOLT-4 leukemia = system: MOLT-4 leukemia
RPMI-8226 leukemia = system: RPMI-8226 leukemia
SN12C renal = system: SN12C renal
SK-MEL-5 melanoma = system: SK-MEL-5 melanoma
SK-MEL-28 melanoma = system: SK-MEL-28 melanoma
UACC-62 melanoma = system: UACC-62 melanoma
M14 melanoma = system: M14 melanoma
SNB-19 CNS = system: SNB-19 CNS
RXF 393 renal = system: RXF 393 renal
BT-549 breast = system: BT-549 breast
HOP-92 NSCLC = system: HOP-92 NSCLC
PC-3 prostate = system: PC-3 prostate
ACHN renal = system: ACHN renal
IGROV1 ovarian = system: IGROV1 ovarian
A549 NSCLC = system: A549 NSCLC
CAKI-1 renal = system: CAKI-1 renal
NCI-H23 lung = system: NCI-H23 lung
T-47D breast = system: T-47D breast
OVCAR-4 ovarian = system: OVCAR-4 ovarian
SW-620 colon = system: SW-620 colon
SNB-75 CNS = system: SNB-75 CNS
LOX IMVI melanoma = system: LOX IMVI melanoma
MCF7 breast = system: MCF7 breast
KM12 colon = system: KM12 colon
OVCAR-8 ovarian = system: OVCAR-8 ovarian
SK-OV-3 ovarian = system: SK-OV-3 ovarian
TK-10 renal = system: TK-10 renal
MDA-MB-231 breast = system: MDA-MB-231 breast
COLO 205 colon = system: COLO 205 colon
SF-539 CNS = system: SF-539 CNS
HCT-15 colon = system: HCT-15 colon
NCI-H522 lung = system: NCI-H522 lung
MDA-MB-435 = system: MDA-MB-435
U251 CNS = system: U251 CNS
SF-268 CNS = system: SF-268 CNS
OVCAR-3 ovarian = system: OVCAR-3 ovarian
HOP-62 NSCLC = system: HOP-62 NSCLC
K-562 leukemia = system: K-562 leukemia
NCI/ADR-RES ovarian = system: NCI/ADR-RES ovarian
CCRF-CEM leukemia = system: CCRF-CEM leukemia

Q: What does the source list for `CC(=O)c1ccc(Nc2nc(SCCC(C)C)nc(-c3ccc(F)cc3)c2C#N)cc1`?
A: GI50 (DU-145 prostate): 10.7 µM; TGI (DU-145 prostate): > 100 µM; GI50 (SF-295 CNS): 2.18 µM; TGI (SF-295 CNS): 5.13 µM; GI50 (HCT-116 colon): 3.51 µM; TGI (HCT-116 colon): 13.7 µM; GI50 (UACC-257 melanoma): > 100 µM; TGI (UACC-257 melanoma): > 100 µM; GI50 (HT29 colon): 5.53 µM; TGI (HT29 colon): > 100 µM; GI50 (HS 578T breast): 3.06 µM; TGI (HS 578T breast): 10.1 µM; GI50 (SK-MEL-2 melanoma): > 100 µM; TGI (SK-MEL-2 melanoma): > 100 µM; GI50 (786-0 renal): 3.09 µM; TGI (786-0 renal): 8.47 µM; GI50 (MDA-MB-468 breast): 10.2 µM; TGI (MDA-MB-468 breast): 50.3 µM; GI50 (A498 renal): 2.84 µM; TGI (A498 renal): 8.8 µM; GI50 (UO-31 renal): 5.01 µM; TGI (UO-31 renal): 25.7 µM; GI50 (OVCAR-5 ovarian): > 100 µM; TGI (OVCAR-5 ovarian): > 100 µM; GI50 (HL-60(TB) leukemia): > 100 µM; TGI (HL-60(TB) leukemia): > 100 µM; GI50 (SR leukemia): > 100 µM; TGI (SR leukemia): > 100 µM; GI50 (MALME-3M melanoma): 32.6 µM; TGI (MALME-3M melanoma): > 100 µM; GI50 (NCI-H460 lung): 3.24 µM; TGI (NCI-H460 lung): 12.5 µM; GI50 (NCI-H226 lung): 3.82 µM; TGI (NCI-H226 lung): 22.4 µM; GI50 (HCC-2998 colon): 21 µM; TGI (HCC-2998 colon): > 100 µM; GI50 (EKVX NSCLC): 3.05 µM; TGI (EKVX NSCLC): 18.8 µM; GI50 (MOLT-4 leukemia): > 100 µM; TGI (MOLT-4 leukemia): > 100 µM; GI50 (RPMI-8226 leukemia): > 100 µM; TGI (RPMI-8226 leukemia): > 100 µM; GI50 (SN12C renal): 24 µM; TGI (SN12C renal): > 100 µM; GI50 (SK-MEL-5 melanoma): 13.8 µM; TGI (SK-MEL-5 melanoma): 53.4 µM; GI50 (SK-MEL-28 melanoma): 29.6 µM; TGI (SK-MEL-28 melanoma): > 100 µM; GI50 (UACC-62 melanoma): 30.2 µM; TGI (UACC-62 melanoma): > 100 µM; GI50 (M14 melanoma): 24.2 µM; TGI (M14 melanoma): > 100 µM; GI50 (SNB-19 CNS): 3.7 µM; TGI (SNB-19 CNS): 14.5 µM; GI50 (RXF 393 renal): 3.53 µM; TGI (RXF 393 renal): 16.8 µM; GI50 (BT-549 breast): 12.7 µM; TGI (BT-549 breast): > 100 µM; GI50 (HOP-92 NSCLC): 2.95 µM; TGI (HOP-92 NSCLC): 16.6 µM; GI50 (PC-3 prostate): 24.7 µM; TGI (PC-3 prostate): > 100 µM; GI50 (ACHN renal): 2.07 µM; TGI (ACHN renal): 4.56 µM; GI50 (IGROV1 ovarian): 10.6 µM; TGI (IGROV1 ovarian): 37.9 µM; GI50 (A549 NSCLC): 3.85 µM; TGI (A549 NSCLC): > 100 µM; GI50 (CAKI-1 renal): 3.75 µM; TGI (CAKI-1 renal): 23.5 µM; GI50 (NCI-H23 lung): 5.86 µM; TGI (NCI-H23 lung): 39.6 µM; GI50 (T-47D breast): 4.19 µM; TGI (T-47D breast): 74.5 µM; GI50 (OVCAR-4 ovarian): 7.2 µM; TGI (OVCAR-4 ovarian): 93.3 µM; GI50 (SW-620 colon): 16.7 µM; TGI (SW-620 colon): > 100 µM; GI50 (SNB-75 CNS): 2.06 µM; TGI (SNB-75 CNS): 21.6 µM; GI50 (LOX IMVI melanoma): 4.41 µM; TGI (LOX IMVI melanoma): 25.7 µM; GI50 (MCF7 breast): 7.51 µM; TGI (MCF7 breast): > 100 µM; GI50 (KM12 colon): 45.5 µM; TGI (KM12 colon): > 100 µM; GI50 (OVCAR-8 ovarian): 5.77 µM; TGI (OVCAR-8 ovarian): 25.5 µM; GI50 (SK-OV-3 ovarian): 9.37 µM; TGI (SK-OV-3 ovarian): 26.2 µM; GI50 (TK-10 renal): 3.78 µM; TGI (TK-10 renal): 12.7 µM; GI50 (MDA-MB-231 breast): 2.94 µM; TGI (MDA-MB-231 breast): 10.2 µM; GI50 (COLO 205 colon): 7.42 µM; TGI (COLO 205 colon): > 100 µM; GI50 (SF-539 CNS): 3.69 µM; TGI (SF-539 CNS): 16 µM; GI50 (HCT-15 colon): 9.87 µM; TGI (HCT-15 colon): > 100 µM; GI50 (NCI-H522 lung): 24 µM; TGI (NCI-H522 lung): > 100 µM; GI50 (MDA-MB-435): 12.9 µM; TGI (MDA-MB-435): > 100 µM; GI50 (U251 CNS): 2.63 µM; TGI (U251 CNS): 7.87 µM; GI50 (SF-268 CNS): 4.85 µM; TGI (SF-268 CNS): 97.4 µM; GI50 (OVCAR-3 ovarian): 13.3 µM; TGI (OVCAR-3 ovarian): 72.8 µM; GI50 (HOP-62 NSCLC): 3.99 µM; TGI (HOP-62 NSCLC): 16.3 µM; GI50 (K-562 leukemia): 32.2 µM; TGI (K-562 leukemia): > 100 µM; GI50 (NCI/ADR-RES ovarian): 4.31 µM; TGI (NCI/ADR-RES ovarian): 27.5 µM; GI50 (CCRF-CEM leukemia): > 100 µM; TGI (CCRF-CEM leukemia): > 100 µM
